Source: ChEMBL document CHEMBL4382216, “Asymmetric synthesis and biological evaluation of imidazole- and oxazole-containing synthetic lipoxin A4 mimetics (sLXms)” (Eur J Med Chem, 2019)
The source made the active and inactive calls. No cut-off for these calls is given here.

Legend:
Homo sapiens [1] = organism: Homo sapiens; experiment: Activation of Luc-fused NFkB (unknown origin) expressed in non-stimulated human THP1 cells assessed as relative luminescence unit at 10^-8 M after 24 hrs by luciferase reporter gene assay (reference value: 100%); assay type: cell-based
[2] = molecular target: T1, N-formyl peptide receptor 2 (Homo sapiens) (UniProt P25090); experiment: Agonist activity at ALX/FPR2 in human THP1 cells harboring NF-kB-Luc assessed as inhibition of LPS-induced NFkB signalling activation by measuring TNFalpha secretion at 10^-9 M pretreated for 30 mins followed by LPS stimulation for 24 hrs by electrochemiluminescence assay; assay type: cell-based; parameters: scale not given: the % may be the effect or the level left
T1 sequence (whole entry): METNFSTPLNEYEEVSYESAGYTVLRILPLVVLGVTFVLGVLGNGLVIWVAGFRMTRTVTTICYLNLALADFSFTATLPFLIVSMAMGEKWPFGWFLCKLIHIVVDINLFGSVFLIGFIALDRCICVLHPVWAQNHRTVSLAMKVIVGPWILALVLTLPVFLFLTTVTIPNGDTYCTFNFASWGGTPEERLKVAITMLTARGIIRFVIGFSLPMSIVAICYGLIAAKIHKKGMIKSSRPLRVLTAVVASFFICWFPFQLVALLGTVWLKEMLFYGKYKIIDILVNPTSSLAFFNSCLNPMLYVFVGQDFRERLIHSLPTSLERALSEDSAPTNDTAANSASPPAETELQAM

Homo sapiens [3] = organism: Homo sapiens; experiment: Activation of Luc-fused NFkB (unknown origin) expressed in non-stimulated human THP1 cells assessed as relative luminescence unit at 10^-6 M after 24 hrs by luciferase reporter gene assay (reference value: 100%); assay type: cell-based
THP-1 [4] = experiment: Cytotoxicity against human THP1 cells harboring NFkB-Luc assessed as LDH release at 10'8 M after 24 hrs by spectrophotometric method relative to control; assay type: cell-based; details: thp-1, 24 h
HEK293 = experiment: Induction of intracellular calcium accumulation in HEK293 cells at 0.01 nM to 100 nM by Fluo-4 dye based fluorescence spectrophotometric assay; assay type: functional, cell-based; details: Homo sapiens
[5] = molecular target: T1, N-formyl peptide receptor 2 (Homo sapiens); experiment: Agonist activity at ALX/FPR2 in human THP1 cells harboring NF-kB-Luc assessed as inhibition of LPS-induced NFkB signalling activation by measuring IFNgamma secretion at 10^-11 M pretreated for 30 mins followed by LPS stimulation for 24 hrs by electrochemiluminescence assay; assay type: cell-based; parameters: scale not given: the % may be the effect or the level left
[6] = molecular target: T1, N-formyl peptide receptor 2 (Homo sapiens); experiment: Agonist activity at ALX/FPR2 in human THP1 cells harboring NF-kB-Luc assessed as inhibition of LPS-induced NFkB signalling activation by measuring TNFalpha secretion at 10^-11 M pretreated for 30 mins followed by LPS stimulation for 24 hrs by electrochemiluminescence assay; assay type: cell-based; parameters: scale not given: the % may be the effect or the level left
[7] = Cytotoxicity against mouse J774.1 cells assessed as cell viability by MTS assay relative to control; assay type: cell-based; details: read-out: Activity
[8] = molecular target: T1, N-formyl peptide receptor 2 (Homo sapiens); experiment: Agonist activity at ALX/FPR2 in human THP1 cells harboring NF-kB-Luc assessed as inhibition of LPS-induced NFkB signalling activation by measuring NF-kB activation level at 10^-9 M pretreated for 30 mins followed by LPS stimulation for 24 hrs by luciferase reporter gene assay; assay type: cell-based; parameters: scale not given: the % may be the effect or the level left
Mus musculus [9] = experiment: (§1) Anti-inflammatory activity in zymosan-induced C57BL/6J mouse peritonitis model assessed as reduction in total cell count in peritoneal cavity at 43 ng, ip pretreated for 30 mins followed by zymosan treatment and redosing of test compound at 1 hr post zymosan addition and measured at 24 hrs post zymosan addition by flow cytometry relative to basal level (reference value: 14); assay type: functional
Mus musculus [10] = experiment: as §1, with “as” for “as reduction in”, “cytometry” for “cytometry relative to basal level”, “100%)” for “14)”; assay type: functional
THP-1 [11] = experiment: Cytotoxicity against human THP1 cells harboring NFkB-Luc assessed as LDH release at 10'7 M after 24 hrs by spectrophotometric method relative to control; assay type: cell-based; details: thp-1, 24 h
[12] = molecular target: T1, N-formyl peptide receptor 2 (Homo sapiens); experiment: Agonist activity at ALX/FPR2 in human THP1 cells harboring NF-kB-Luc assessed as inhibition of LPS-induced NFkB signalling activation by measuring NF-kB activation level at 10^-8 M pretreated for 30 mins followed by LPS stimulation for 24 hrs by luciferase reporter gene assay; assay type: cell-based; parameters: scale not given: the % may be the effect or the level left
Homo sapiens [13] = organism: Homo sapiens; experiment: Activation of Luc-fused NFkB (unknown origin) expressed in non-stimulated human THP1 cells assessed as relative luminescence unit at 10^-10 M after 24 hrs by luciferase reporter gene assay (reference value: 100%); assay type: cell-based
THP-1 [14] = experiment: Cytotoxicity against human THP1 cells harboring NFkB-Luc assessed as LDH release at 10'9 M after 24 hrs by spectrophotometric method relative to control; assay type: cell-based; details: thp-1, 24 h
THP-1 [15] = experiment: Cytotoxicity against human THP1 cells harboring NFkB-Luc assessed as LDH release at 10'10 M after 24 hrs by spectrophotometric method relative to control; assay type: cell-based; details: thp-1, 24 h
Homo sapiens [16] = organism: Homo sapiens; experiment: Activation of Luc-fused NFkB (unknown origin) expressed in non-stimulated human THP1 cells assessed as relative luminescence unit at 10^-7 M after 24 hrs by luciferase reporter gene assay (reference value: 100%); assay type: cell-based
Mus musculus [17] = experiment: as §1, with “PMN leukocytes level” for “reduction in total cell count”, “cytometry” for “cytometry relative to basal level”, “100%)” for “14)”; assay type: functional
Homo sapiens [18] = organism: Homo sapiens; experiment: Activation of Luc-fused NFkB (unknown origin) expressed in non-stimulated human THP1 cells assessed as relative luminescence unit at 10^-12 M after 24 hrs by luciferase reporter gene assay (reference value: 100%); assay type: cell-based
[19] = molecular target: T1, N-formyl peptide receptor 2 (Homo sapiens); experiment: Agonist activity at ALX/FPR2 in human THP1 cells harboring NF-kB-Luc assessed as inhibition of LPS-induced NFkB signalling activation by measuring NF-kB activation level at 10^-11 M pretreated for 30 mins followed by LPS stimulation for 24 hrs by luciferase reporter gene assay; assay type: cell-based; parameters: scale not given: the % may be the effect or the level left
THP-1 [20] = experiment: Cytotoxicity against human THP1 cells harboring NFkB-Luc assessed as LDH release at 10'6 M after 24 hrs by spectrophotometric method relative to control; assay type: cell-based; details: thp-1, 24 h
[21] = molecular target: T1, N-formyl peptide receptor 2 (Homo sapiens); experiment: Agonist activity at ALX/FPR2 in human THP1 cells harboring NF-kB-Luc assessed as inhibition of LPS-induced NFkB signalling activation by measuring NF-kB activation level at 10^-10 M pretreated for 30 mins followed by LPS stimulation for 24 hrs by luciferase reporter gene assay; assay type: cell-based; parameters: scale not given: the % may be the effect or the level left
THP-1 [22] = experiment: Cytotoxicity against human THP1 cells harboring NFkB-Luc assessed as LDH release at 10'11 M after 24 hrs by spectrophotometric method relative to control; assay type: cell-based; details: thp-1, 24 h
[23] = molecular target: T2, N-formyl peptide receptor 2 (Homo sapiens, UniProt P25090); experiment: Agonist activity at ALX/FPR2 in human THP1 cells harboring NF-kB-Luc assessed as inhibition of LPS-induced NFkB signalling activation pretreated for 30 mins followed by LPS stimulation for 24 hrs by luciferase reporter gene assay; assay type: cell-based
T2 sequence (P25090 whole entry): T1 sequence (whole entry)

THP-1 [24] = experiment: Cytotoxicity against human THP1 cells harboring NFkB-Luc assessed as LDH release at 10'12 M after 24 hrs by spectrophotometric method relative to control; assay type: cell-based; details: thp-1, 24 h
[25] = molecular target: T1, N-formyl peptide receptor 2 (Homo sapiens); experiment: Agonist activity at ALX/FPR2 in human THP1 cells harboring NF-kB-Luc assessed as inhibition of LPS-induced NFkB signalling activation by measuring TNFalpha secretion at 10^-7 M pretreated for 30 mins followed by LPS stimulation for 24 hrs by electrochemiluminescence assay; assay type: cell-based; parameters: scale not given: the % may be the effect or the level left

CCCCC[C@H](O)c1nc(-c2ccccc2)n(-c2ccccc2)c1/C=C/[C@@H](O)[C@@H](O)CCCC(=O)OC
Activity (Homo sapiens [1]): 1.2%
Activity [2]: 80.9%
Activity (Homo sapiens [3]): 1.3%
fold change (FC) (THP-1 [4]): 1
Activity (HEK293): inactive
Activity [5]: 69.1%
Activity [6]: 69.3%
viability [7]: 95 to 100%
Activity [8]: 80.3%
fold change (FC) (Mus musculus [9]): 3
Emax (Mus musculus [10]): 19.5%
fold change (FC) (THP-1 [11]): 1.4
Activity [12]: 80.4%
Activity (Homo sapiens [13]): 1.7%
fold change (FC) (THP-1 [14]): 0.8
fold change (FC) (THP-1 [15]): 0.6
Activity (Homo sapiens [16]): 0.9%
Emax (Mus musculus [17]): 18.2%
Activity (Homo sapiens [18]): 1.3%
Activity [19]: 83.4%
fold change (FC) (THP-1 [20]): 1.6
Activity [21]: 79.7%
fold change (FC) (THP-1 [22]): 0.6
IC50 [23]: 32.4 nM
fold change (FC) (THP-1 [24]): 0.6
Activity [25]: 86.8%

CCCCC[C@H](O)/C=C/C=C\C=C\C=C\[C@@H](O)[C@@H](O)CCCC(=O)O [LIPOXIN A4]
Activity [2]: 16.9%
Activity (HEK293): inactive
Activity [5]: 30.3%
Activity [6]: 19.6%
viability [7]: 95 to 100%
Activity [8]: 84.2%
Activity [12]: 83.3%
Activity [19]: 95.5%
Activity [21]: 85.6%
IC50 [23]: 26.3 nM
Activity [25]: 29.5%

CCCCC[C@@H](O)c1nc(-c2ccccc2)n(-c2ccccc2)c1/C=C/[C@@H](O)[C@@H](O)CCCC(=O)OC
Activity (Homo sapiens [1]): 1.2%
Activity [2]: 68.6%
Activity (Homo sapiens [3]): 1.2%
fold change (FC) (THP-1 [4]): 0.9
Activity [5]: 79.1%
Activity [6]: 61.5%
viability [7]: 95 to 100%
Activity [8]: 85.2%
fold change (FC) (Mus musculus [9]): 6
Emax (Mus musculus [10]): 42.5%
fold change (FC) (THP-1 [11]): 1.1
Activity [12]: 84.4%
Activity (Homo sapiens [13]): 1.5%
fold change (FC) (THP-1 [14]): 0.8
fold change (FC) (THP-1 [15]): 0.6
Activity (Homo sapiens [16]): 0.8%
Emax (Mus musculus [17]): 45.5%
Activity (Homo sapiens [18]): 1.7%
Activity [19]: 94.3%
fold change (FC) (THP-1 [20]): 1.1
Activity [21]: 91.2%
fold change (FC) (THP-1 [22]): 0.5
IC50 [23]: 26.2 nM
fold change (FC) (THP-1 [24]): 0.5
Activity [25]: 78.1%
